In the oligonucleotide strings, read from the 5' end, every base follows the letter of its sugar. An asterisk marks phosphorothioate; unmarked linkages are phosphodiester. Other units and linkages are bracketed, terminal groups are in braces. A string of capitals states the bases alone. d = 2'-deoxy (DNA); m = 2'-O-methyl

In one data set the target is cGAS (Homo sapiens, UniProt Q8N884). Put plainly: ISD70-driven IP-10 (and IFN-β) production in THP-1 cells, ELISA. The conditions noted are these: THP-1; 100 nM ASO overnight, then ISD70 2.5 μg/ml 7-8 h; percentage of ISD70 only. The data set is classed as cell-based. Also on record: endogenous in cells; host or cells: THP-1 (undifferentiated). (An ELISA detects its analyte on a solid surface through an enzyme-linked reagent.)
Chain of cGAS (Q8N884 whole entry): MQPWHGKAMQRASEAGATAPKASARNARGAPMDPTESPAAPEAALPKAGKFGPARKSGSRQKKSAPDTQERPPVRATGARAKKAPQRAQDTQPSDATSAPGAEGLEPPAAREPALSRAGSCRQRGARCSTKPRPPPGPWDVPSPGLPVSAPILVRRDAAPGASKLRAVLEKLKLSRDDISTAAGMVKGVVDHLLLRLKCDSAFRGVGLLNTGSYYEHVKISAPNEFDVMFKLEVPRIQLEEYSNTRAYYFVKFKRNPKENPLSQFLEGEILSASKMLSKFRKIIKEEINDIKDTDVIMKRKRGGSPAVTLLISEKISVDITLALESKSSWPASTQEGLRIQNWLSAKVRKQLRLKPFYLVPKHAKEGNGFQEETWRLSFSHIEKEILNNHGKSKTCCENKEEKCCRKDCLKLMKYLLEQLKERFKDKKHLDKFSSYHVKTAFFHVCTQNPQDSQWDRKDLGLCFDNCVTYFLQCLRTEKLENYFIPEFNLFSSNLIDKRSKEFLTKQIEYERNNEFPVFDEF
Take “mA*mA*mG*mG*mU*G*G*C*C*A*C*A*G*G*C*mA*mA*mC*mG*mU (mA*mA*mG*mG*mU*dG*dG*dC*dC*dA*dC*dA*dG*dG*dC*mA*mA*mC*mG*mU; antisense) [[CDKN2B-AS1]2198]”: the “cGAS-100 nM: averaged IP-10 levels relative to ISD70” value amounted to 60.48%.
Regarding “mA*mA*mU*mA*mU*C*T*G*C*T*G*C*C*C*A*mC*mC*mU*mU*mC (mA*mA*mU*mA*mU*dC*dT*dG*dC*dT*dG*dC*dC*dC*dA*mC*mC*mU*mU*mC; antisense) [[CDKN2B-AS1]832]”, the “cGAS-100 nM: averaged IP-10 levels relative to ISD70” value is given as 83.17%.
Take “mA*mA*mU*mU*mU*A*A*A*G*C*A*T*G*A*A*mU*mA*mU*mU*mA (mA*mA*mU*mU*mU*dA*dA*dA*dG*dC*dA*dT*dG*dA*dA*mU*mA*mU*mU*mA) [[CDKN2B-AS1]645]”: the “cGAS-100 nM: averaged IP-10 levels relative to ISD70” value is 67.63%.
Same read-out and setting: as for “mA*mC*mC*mC*mU*T*C*T*C*T*C*T*G*G*T*mC*mC*mC*mA*mU (mA*mC*mC*mC*mU*dT*dC*dT*dC*dT*dC*dT*dG*dG*dT*mC*mC*mC*mA*mU; antisense) [[LINC-PINT]115]”, the figure is 89.81%; as for “mA*mG*mA*mA*mA*G*A*A*G*C*A*A*A*G*A*mU*mU*mC*mA*mA (AGAAAGAAGCAAAGAUUCAA; sugars from the 5' end m5 d10 m5, all phosphorothioate, methylation of C not given here) [[CDKN2B-AS1]1519]”, 49.09%; as for “mA*mG*mA*mU*mU*A*T*C*T*T*C*T*T*T*T*mA*mA*mU*mU*mU (AGAUUATCTTCTTTTAAUUU; sugars from the 5' end m5 d10 m5, all phosphorothioate, methylation of C not given here) [[CDKN2B-AS1]2130]”, 55.80%.
Take “mA*mG*mC*mC*mG*A*A*C*A*G*A*A*G*G*A*mG*mC*mG*mU*mC (AGCCGAACAGAAGGAGCGUC; sugars from the 5' end m5 d10 m5, all phosphorothioate, methylation of C not given here) [[LINC-PINT]587 KL]”: the “cGAS-100 nM: averaged IP-10 levels relative to ISD70” value worked out at 39.92%.
On the same count and under the same terms, as for “mA*mG*mG*mA*mU*T*A*A*A*A*C*A*G*A*T*mU*mA*mA*mU*mA (mA*mG*mG*mA*mU*dT*dA*dA*dA*dA*dC*dA*dG*dA*dT*mU*mA*mA*mU*mA) [[CDKN2B-AS1] 1775]”, the figure is 88.54%.
Consider “mA*mG*mG*mC*mC*T*C*C*A*G*T*G*T*C*T*mU*mC*mU*mC*mC (mA*mG*mG*mC*mC*dT*dC*dC*dA*dG*dT*dG*dT*dC*dT*mU*mC*mU*mC*mC; antisense) [[CDKN2B-AS1]2218]”, for which the “cGAS-100 nM: averaged IP-10 levels relative to ISD70” value turned out to be 62.85%.
The same measure, in the same setting: as for “mA*mU*mA*mU*mC*T*G*C*T*G*C*C*C*A*C*mC*mU*mU*mC*mU (AUAUCTGCTGCCCACCUUCU; antisense; sugars from the 5' end m5 d10 m5, all phosphorothioate, methylation of C not given here) [[CDKN2B-AS1]831]”, the figure is 108.01%.
In the case of “mA*mU*mG*mA*mC*A*T*T*T*C*G*T*G*G*C*mU*mC*mC*mU*mA (mA*mU*mG*mA*mC*dA*dT*dT*dT*dC*dG*dT*dG*dG*dC*mU*mC*mC*mU*mA) [[LINC-PINT]524.1]”, the “cGAS-100 nM: averaged IP-10 levels relative to ISD70” value is on record as 99.38%.
As for “mC*mA*mA*mG*mC*C*C*C*A*G*C*G*T*T*C*mC*mU*mC*mC*mG (mC*mA*mA*mG*mC*dC*dC*dC*dA*dG*dC*dG*dT*dT*dC*mC*mU*mC*mC*mG; antisense) [[LINC-PINT]83.1]”, the “cGAS-100 nM: averaged IP-10 levels relative to ISD70” value is 77.10%.
Turning to “mC*mA*mC*mC*mC*T*T*C*T*C*T*C*T*G*G*mU*mC*mC*mC*mA (CACCCTTCTCTCTGGUCCCA; antisense; sugars from the 5' end m5 d10 m5, all phosphorothioate, methylation of C not given here) [[LINC-PINT]116]”, the “cGAS-100 nM: averaged IP-10 levels relative to ISD70” value is 97.19%.
As to “mC*mA*mC*mU*mG*T*A*T*T*T*T*A*T*T*A*mC*mA*mG*mA*mA (mC*mA*mC*mU*mG*dT*dA*dT*dT*dT*dT*dA*dT*dT*dA*mC*mA*mG*mA*mA; antisense) [[LINC-PINT]2990]”, the “cGAS-100 nM: averaged IP-10 levels relative to ISD70” value is 69.47%.
Consider “mC*mA*mG*mG*mC*C*T*C*C*A*G*T*G*T*C*mU*mU*mC*mU*mC (mC*mA*mG*mG*mC*dC*dT*dC*dC*dA*dG*dT*dG*dT*dC*mU*mU*mC*mU*mC; antisense) [[CDKN2B-AS1]2219]”, for which the “cGAS-100 nM: averaged IP-10 levels relative to ISD70” value was found to be 99.38%.
Regarding “mC*mA*mU*mC*mC*C*T*T*C*T*G*C*T*G*C*mC*mA*mA*mG*mC (mC*mA*mU*mC*mC*dC*dT*dT*dC*dT*dG*dC*dT*dG*dC*mC*mA*mA*mG*mC; antisense) [[LINC-PINT]98]”, the “cGAS-100 nM: averaged IP-10 levels relative to ISD70” value stood at 70.60%.
Regarding “mC*mC*mA*mU*mC*C*C*T*T*C*T*G*C*T*G*mC*mC*mA*mA*mG (mC*mC*mA*mU*mC*dC*dC*dT*dT*dC*dT*dG*dC*dT*dG*mC*mC*mA*mA*mG; antisense) [ILING-PINT199]”, the “cGAS-100 nM: averaged IP-10 levels relative to ISD70” value came to 85.43%.
For “mC*mC*mA*mU*mG*T*C*C*C*A*G*G*C*C*T*mC*mC*mA*mG*mU (CCAUGTCCCAGGCCTCCAGU; sugars from the 5' end m5 d10 m5, all phosphorothioate, methylation of C not given here) [[CDKN2B-AS1]2227]”, the “cGAS-100 nM: averaged IP-10 levels relative to ISD70” value stood at 36.34%.
For “mC*mC*mC*mU*mA*A*T*G*C*T*T*T*C*C*T*mC*mU*mC*mC*mA (mC*mC*mC*mU*mA*dA*dT*dG*dC*dT*dT*dT*dC*dC*dT*mC*mU*mC*mC*mA; antisense) [[LINC-PINT1877 KL]”, the “cGAS-100 nM: averaged IP-10 levels relative to ISD70” value is 89.09%.
On to “mC*mC*mC*mU*mU*C*T*C*T*C*T*G*G*T*C*mC*mC*mA*mU*mC (mC*mC*mC*mU*mU*dC*dT*dC*dT*dC*dT*dG*dG*dT*dC*mC*mC*mA*mU*mC; antisense) [[LINC-PINT]114]”, for which the “cGAS-100 nM: averaged IP-10 levels relative to ISD70” value was found to be 84.38%.
For “mC*mC*mU*mA*mG*A*A*A*G*A*A*G*C*A*A*mA*mG*mA*mU*mU (mC*mC*mU*mA*mG*dA*dA*dA*dG*dA*dA*dG*dC*dA*dA*mA*mG*mA*mU*mU) [[CDKN2B-AS1]1522]”, the “cGAS-100 nM: averaged IP-10 levels relative to ISD70” value came out at 60.90%.
For the substance “mC*mC*mU*mU*mC*T*C*T*C*T*G*GT*C*C*mC*mA*mU*mC*mC (CCUUCTCTCTGGTCCCAUCC; antisense; chemistry not fully specified) [[LINC-PINT]113]”, the “cGAS-100 nM: averaged IP-10 levels relative to ISD70” value is given as 103.79%.
With “mC*mC*mU*mU*mC*T*G*C*T*G*C*C*A*A*G*mC*mC*mC*mC*mA (mC*mC*mU*mU*mC*dT*dG*dC*dT*dG*dC*dC*dA*dA*dG*mC*mC*mC*mC*mA; antisense) [[LINC-PINT]94]”, the “cGAS-100 nM: averaged IP-10 levels relative to ISD70” value was 104.33%.
For the substance “mC*mU*mC*mU*mC*T*G*G*T*C*C*C*A*T*C*mC*mC*mU*mU*mC (mC*mU*mC*mU*mC*dT*dG*dG*dT*dC*dC*dC*dA*dT*dC*mC*mC*mU*mU*mC; antisense) [[LINC-PINT]109]”, the “cGAS-100 nM: averaged IP-10 levels relative to ISD70” value is given as 80.22%.
For the substance “mC*mU*mU*mC*mU*C*T*C*T*G*G*T*C*C*C*mA*mU*mC*mC*mC (mC*mU*mU*mC*mU*dC*dT*dC*dT*dG*dG*dT*dC*dC*dC*mA*mU*mC*mC*mC) [[LINC-PINT]112]”, the “cGAS-100 nM: averaged IP-10 levels relative to ISD70” value is 82.64%.
“mC*mU*mU*mU*mA*T*A*T*T*A*C*A*A*A*G*mC*mU*mA*mC*mU (mC*mU*mU*mU*mA*dT*dA*dT*dT*dA*dC*dA*dA*dA*dG*mC*mU*mA*mC*mU; antisense) [[LINC-PINT]2755]”: the “cGAS-100 nM: averaged IP-10 levels relative to ISD70” value stood at 92.54%.
As for “mG*mA*mA*mA*mA*G*A*T*T*A*T*C*T*T*C*mU*mU*mU*mU*mA (GAAAAGATTATCTTCUUUUA; sugars from the 5' end m5 d10 m5, all phosphorothioate, methylation of C not given here) [[CDKN2B-AS1]2134]”, the “cGAS-100 nM: averaged IP-10 levels relative to ISD70” value was found to be 51.49%.
On the same count and under the same terms, as for “mG*mA*mU*mG*mG*T*T*C*C*A*G*T*C*C*C*mU*mC*mU*mU*mC (GAUGGTTCCAGTCCCUCUUC; antisense; sugars from the 5' end m5 d10 m5, all phosphorothioate, methylation of C not given here) [[LINC-PINT]1497.1]”, the figure is 26.05%; as for “mG*mA*mU*mU*mA*A*A*A*C*A*G*A*T*T*A*mA*mU*mA*mC*mA (mG*mA*mU*mU*mA*dA*dA*dA*dC*dA*dG*dA*dT*dT*dA*mA*mU*mA*mC*mA) [[CDKN2B-AS1]1773]”, 89.36%; as for “mG*mC*mA*mA*mG*G*C*A*G*A*G*A*A*A*C*mU*mC*mC*mA*mG (GCAAGGCAGAGAAACUCCAG; sugars from the 5' end m5 d10 m5, all phosphorothioate, methylation of C not given here) [[LINC-PINT]1315 KL]”, 30.64%.
Take “mG*mC*mG*mU*mA*G*T*T*T*C*T*C*T*T*C*mC*mU*mC*mC*mC (GCGUAGTTTCTCTTCCUCCC; sugars from the 5' end m5 d10 m5, all phosphorothioate, methylation of C not given here) [[LINC-PINT]935 KL]”: the “cGAS-100 nM: averaged IP-10 levels relative to ISD70” value is given as 50.62%.
Turning to “mG*mG*mA*mU*mU*A*A*A*A*C*A*G*A*T*T*mA*mA*mU*mA*mC (GGAUUAAAACAGATTAAUAC; sugars from the 5' end m5 d10 m5, all phosphorothioate, methylation of C not given here) [[CDKN2B-AS1]1774]”, the “cGAS-100 nM: averaged IP-10 levels relative to ISD70” value is on record as 50.11%.
As to “mG*mG*mG*mU*mC*T*C*C*T*C*C*A*C*A*C*mC*mC*mU*mU*mC (GGGUCTCCTCCACACCCUUC; antisense; sugars from the 5' end m5 d10 m5, all phosphorothioate, methylation of C not given here) [[LINC-PINT]128]”, the “cGAS-100 nM: averaged IP-10 levels relative to ISD70” value came to 37.83%.

The data set is the same for the next values; noted with them: THP-1; 2′OMe or PS oligos, 100-250 nM, pre-treatment as in figure legends; ISD70 2.5 μg/ml.
Take “mG*mA*mU*mG*mG*T*T*C*C*A*G*T*C*C*C*mU*mC*mU*mU*mC (GAUGGTTCCAGTCCCUCUUC; antisense; sugars from the 5' end m5 d10 m5, all phosphorothioate, methylation of C not given here) [[LINC-PINT]1497.1]”: the “inhibition of ISD70-driven IP-10 production (in words)” value was “significant effect”.

The values above are taken from patent US20240384268A1, “Oligonucleotides” (Hudson Institute of Medical Research, priority 2021, published 2024).
